Test results published in patent US20060167019A1, “Fungicidal mixtures based on a trizolopyrimidine derivative” (priority 2003, published 2006).

System: Plasmopara viticola
Test: Activity against peronospora of grapevines caused by Plasmopara viticola (protective spray on potted vines)
Format: in vivo
Details: individual active compound, potted vines cultivar Müller-Thurgau, untreated control 84% infection
Protocol: The active compounds, separately or jointly, were prepared as a stock solution comprising 0.25% by weight of active compound in acetone or DMSO. 1% by weight of the emulsifier Uniperol® EL (wetting agent having emulsifying and dispersant action based on ethoxylated alkylphenols) was added to this solution, and the mixture was diluted with water to the desired concentration.
Leaves of potted vines of the cultivar “Müller-Thurgau” were sprayed to runoff point with an aqueous suspension having the concentration of active compound stated below. The next day, the undersides of the leaves were inoculated with an aqueous zoospore suspension of Plasmopara viticola. The grapevines were then initially placed in a water-vapor-saturated chamber at 24° C. for 48 hours and then in a greenhouse at 20-30° C. for 5 days. After this period of time, the plants were again placed in a humid chamber for 16 hours to promote sporangiophore eruption. The extent of the development of the disease on the undersides of the leaves was then determined visually.
The visually determined percentages of infected leaf areas were converted into efficacies in % of the untreated control:
The efficacy (E) is calculated as follows using Abbot's formula: E=(1−α/β)−100 α corresponds to the fungicidal infection of the treated plants in % and β corresponds to the fungicidal infection of the untreated (control) plants in %
An efficacy of 0 means that the infection level of the treated plants corresponds to that of the untreated control plants; an efficacy of 100 means that the treated plants are not infected.
The expected efficacies of mixtures of active compounds were determined using Colby's formula (Colby, S. R. “Calculating synergistic and antagonistic responses of herbicide combinations”, Weeds, 15, 20-22, 1967) and compared with the observed efficacies.
Colby's formula: E=x+y−x·y/100 • E expected efficacy, expressed in % of the untreated control, when using the mixture of the active compounds A and B at the concentrations a and b • x efficacy, expressed in % of the untreated control, when using the active compound A at the concentration a • y efficacy, expressed in % of the untreated control, when using the active compound B at the concentration b

## CC1CCN(c2c(-c3c(F)cccc3Cl)c(Cl)nc3ncnn23)CC1 [Comparison A]
0.25 ppm in the spray liquor
  Efficacy in % of the untreated control: 0%
1 ppm in the spray liquor
  Efficacy in % of the untreated control: 0%

## C[C@H](Nc1c(-c2c(F)cc(F)cc2F)c(Cl)nc2ncnn12)C(F)(F)F [Comparison B]
0.25 ppm in the spray liquor
  Efficacy in % of the untreated control: 5%
1 ppm in the spray liquor
  Efficacy in % of the untreated control: 17%

## CC1CCN(c2c(-c3c(F)cc(F)cc3F)c(Cl)nc3ncnn23)CC1 [I, 5-chloro-7-(4-methylpiperidin-1-yl)-6-(2,4,6-trifluorophenyl)-[1,2,4]triazolo[1,5-a]pyrimidine]
0.25 ppm in the spray liquor
  Efficacy in % of the untreated control: 0%
1 ppm in the spray liquor
  Efficacy in % of the untreated control: 17%
